Reference: PubChem BioAssay AID463182 (University of Pittsburgh Molecular Library Screening Center, 2010)
Calls of active or inactive are those of the source. The rule behind the calls is not given here.

biological target: Furin (Homo sapiens) (UniProt P09958); test: furin inhibitor potency, dose response, biochemical, fluorescence intensity, IC50 (AID 463182); conditions: purified furin, fluorogenic peptide substrate cleavage
Sequence (P09958 108-714 limits assumed): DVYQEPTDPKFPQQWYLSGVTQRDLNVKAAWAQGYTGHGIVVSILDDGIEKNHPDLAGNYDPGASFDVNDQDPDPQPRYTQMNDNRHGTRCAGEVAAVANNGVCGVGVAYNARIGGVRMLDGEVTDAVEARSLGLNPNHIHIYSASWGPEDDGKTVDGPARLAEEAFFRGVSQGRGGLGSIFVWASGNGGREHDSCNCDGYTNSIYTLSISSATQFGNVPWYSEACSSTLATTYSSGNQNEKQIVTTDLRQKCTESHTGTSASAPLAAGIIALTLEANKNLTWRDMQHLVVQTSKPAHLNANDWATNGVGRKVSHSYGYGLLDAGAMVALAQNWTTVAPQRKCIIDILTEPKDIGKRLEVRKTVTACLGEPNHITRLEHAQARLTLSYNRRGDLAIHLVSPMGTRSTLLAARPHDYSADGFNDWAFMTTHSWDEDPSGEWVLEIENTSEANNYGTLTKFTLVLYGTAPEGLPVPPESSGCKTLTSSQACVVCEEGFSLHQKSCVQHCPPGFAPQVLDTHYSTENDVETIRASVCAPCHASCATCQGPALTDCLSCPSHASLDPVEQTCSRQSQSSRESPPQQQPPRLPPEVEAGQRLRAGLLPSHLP

Compound	IC50
CC1(C)CC(=O)C(/C=N/n2cnc3ccccc3c2=O)=C(O)C1	> 50 µM (inactive)
CC1(C)CC(=O)C(C=Nc2cccnc2)=C(O)C1	> 50 µM (inactive)
Cc1cccc(/N=C/C2=C(O)CC(C)(C)CC2=O)n1	> 50 µM (inactive)
